Test results: PMC9535023, “Inhibition of phospholipase D1 induces immunogenic cell death and potentiates cancer immunotherapy in colorectal cancer” (Experimental & Molecular Medicine, 2022)
pIC50: −log10 of the molar value.

Tests used:
[1] = test system: AOM/DSS-induced mouse colon cancer; assay: AOM/DSS-induced colitis-associated CRC model; type: in vivo; conditions: AOM/DSS mice, 10 mg/kg
Method: (§1) Supplementary materials and methods […]
The AOM/DSS colorect al cancer model was est ablished using 6 -weeks-old C57BL/6 male mice (Koat ech). Mice were given a single intraperitoneal (IP) injection of the mutagen AOM (10 mg/kg), aft er whi ch t hey were given three periods drinking water contai ning 2.5% DSS for 5 days, followed by 15 days of normal water. AOM/DSS-induced mice were given either vehicle (PBS containing 8% DMSO and 1% Tween 80) or 10 mg/kg A3373 compound every day by oral administration for 45 days. […]

MC38-GFP-Luc cells = assay: Colon cancer orthotopic model (MC38-GFP-Luc in cecum); type: in vivo, mouse
Method: GFP-luciferase expressing MC38 murine CRC (MC38-GFP-Luc) cells were cocultured with bone marrow-derived macrophages (BMDMs). After 48 h, the macrophages were isolated and incubated with naïve T cells from the splenocytes of wild-type mice to generate CD8^+ T cells. The activated CD8^+ T cells were sorted using BD FACSAria III, added to wells containing MC38-GFP-Luc cells and titrated to effector cells (E) and the target cell (T) ratio (E/T ratio). Four hours later, CD8^+ T-cell-mediated killing of MC38-GFP-Luc cancer cells in each well was monitored using a luciferase-based bioluminescence imaging system.
as §1
A colon cancer orthotropic model was established using 6- weeks-old C57BL/6 male mice.
Mice were administered a single IP injection of 2,2,2-Tribromoethanol (Avertin, Sigma - aldrich), an an esthetic . T he abdomen was shaved and the surgi cal site was draped in a sterile […]
manner. The incision was extended to 2–3 cm, and the cecum was exposed. 2 × 10^5 MC38-GFP-Luciferas e cells were suspended in 50 µL PBS and injected into the cecum. Seven days after cell injection, 10 mg/kg A3373 was orally administered to the mice daily for 4 weeks. […]
All mice wer e housed at 2 5°C under a 12:12 hou rs light/dark cycle. All animal procedu res were performed in accordance with the institutional guidelines for animal research and were approved by the Institutional Animal Care and Use Committee of Yonsei University (IACUC- […]
In a colon cancer orthotropic model, tumor-infiltrating lymphocytes (TILs) were isolated from the tumor tissue 30 days after cell injection. Tumors wer e en zymatically di ssociated in RPMI media containing 10% FBS, 200 mg/mL collagenase IV (Sigma- Aldrich), 20 mg/mL hyaluronidase (Sigma-Al drich), and 20 mg/mL DNase I (Sigma Aldrich) at 37 ℃ with stirring.
After 20 minutes of incubation, 0.1 M EDTA was added to prevent clumping. Cells were filtered through a 40 µm nylon mesh, single-cell suspensions were counted and used for the experiments. Finally, the TILs were resuspended in PBS containing 1% FBS. For the distribution of immune cells, anti- mouse CD45 microbeads were us ed according to the manufacturer’s instructions (Miltenyi Biotech). Isolated tumor cells were cultured for one passage to change the immunocompromised phenotype and assessed using flow cytometry.
Splenocytes were isolat ed from mouse spleens, seeded at 5× 10^6 cells, and stimulated with 10 µg/mL MC38 GFP-Luciferase cell lysates. For intracellular cytokine staining, cells were […]

DLD1 cells [2] = assay: Sphere formation assay; type: cell-based; conditions: limiting dilution assays
Method: DLD1 cells were cultured in DMEM/F-12 with epidermal growth factor (20 ng/mL), basic fibroblast growth factor (20 ng/mL), and B27 supplements in noncoated dishes. For serial passaging, the sphere cells were dissociated into single cells with Accutase (Invitrogen) once every 4–7 days and incubated. After the secondary generation, the DLD1 sphere cells were used for the experiments. […] The cells were fixed with 4% paraformaldehyde, and sphere formation was calculated from 10 positions in each well by an Olympus BX53 microscope and cellSens image acquisition software (Olympus).

CRC cells = assay: TCF transactivation in CRC cells with an active Wnt pathway; type: cell-based
DLD1 cells [3] = assay: Cell viability (MTT); type: cell-based
Method: Cell viability was measured by MTT (3-(4,5-dimethylthiazol2-yl)-2,5-diphenyltetrazolium bromide, Sigma-Aldrich). Cells (5 × 10^3 cells/well) were seeded in a 96-well plate. […] After treatment, the cells were incubated with 0.5 mg/mL MTT in the media for 2 h and lysed with DMSO. Absorbance was measured at 570 nm using a VersaMax ELISA microplate reader (Molecular Devices).

HCT116 cells = assay: Flow cytometry of do not eat-me signals and calreticulin; type: cell-based
PLD2 = target: T1, PLD2 (Mus musculus, UniProt P97813); assay: PLD2 activity in Pld1−/− MEFs; type: cell-based
T1 construct: endogenous in cells; host or cells: immortalized Pld1-/- mouse embryonic fibroblasts
Method: Cells were labeled with [H^3] myristic acid, and PLD activity was assessed by measuring the formation of [H^3] phosphatidylbutanol, which is the product of PLD-mediated transphosphatidylation, in the presence of 1-butanol, as previously described.
We further investigated the effect of A3373 on the enzymatic inhibition of PLD1 and PLD2 in Pld^+/+, Pld1^−/−, and Pld2^−/− MEFs. […] Kinase profiling was used to evaluate the general selectivity of the lead compounds. […] To further investigate whether inhibition of PLD1 by A3373 occurs by binding to PLD1, we first modified A3373 by adding biotinylation instead of the F present in its structure and measured PLD activity.

[4] = mesenteric lymph nodes, vs vehicle

T1 sequence (P97813 whole entry): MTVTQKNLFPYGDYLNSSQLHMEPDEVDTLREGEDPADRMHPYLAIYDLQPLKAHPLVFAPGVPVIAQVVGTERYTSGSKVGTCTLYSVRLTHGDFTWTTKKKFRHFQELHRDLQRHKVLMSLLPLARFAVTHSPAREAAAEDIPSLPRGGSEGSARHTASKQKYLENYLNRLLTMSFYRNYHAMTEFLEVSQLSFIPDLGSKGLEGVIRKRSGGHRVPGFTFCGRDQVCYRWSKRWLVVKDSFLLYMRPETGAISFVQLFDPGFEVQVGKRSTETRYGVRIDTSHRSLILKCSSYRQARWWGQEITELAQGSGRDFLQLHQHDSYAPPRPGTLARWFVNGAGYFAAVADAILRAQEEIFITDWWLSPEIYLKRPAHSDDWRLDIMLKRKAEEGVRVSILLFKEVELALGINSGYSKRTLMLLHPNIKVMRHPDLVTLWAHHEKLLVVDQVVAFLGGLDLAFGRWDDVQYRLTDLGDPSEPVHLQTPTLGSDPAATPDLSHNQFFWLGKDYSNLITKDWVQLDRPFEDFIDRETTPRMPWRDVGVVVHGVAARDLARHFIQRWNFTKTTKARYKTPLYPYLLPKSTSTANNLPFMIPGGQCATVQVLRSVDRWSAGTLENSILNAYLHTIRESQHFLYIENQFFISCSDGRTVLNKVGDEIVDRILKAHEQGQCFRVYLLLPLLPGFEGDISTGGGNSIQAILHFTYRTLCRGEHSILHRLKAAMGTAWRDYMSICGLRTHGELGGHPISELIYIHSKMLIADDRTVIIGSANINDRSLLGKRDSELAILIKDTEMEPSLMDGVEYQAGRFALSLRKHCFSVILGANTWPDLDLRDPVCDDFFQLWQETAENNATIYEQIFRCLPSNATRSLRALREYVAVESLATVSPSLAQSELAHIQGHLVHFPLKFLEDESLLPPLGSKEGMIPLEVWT

O=C(Nc1cc(C(F)(F)F)cc(C(F)(F)F)c1)c1cc2cc(F)ccc2[nH]1 [Compound A3373]
CD8 expression (IHC) [1]: increased the expression level of CD8 | active caspase-3, Ki67 and CD31 in tumor tissues (IHC) [1]: increased the level of active caspase-3 and decreased the levels of Ki67 and CD31 | do not eat-me and eat-me signals in tumor tissues (IHC) [1]: decreased the expression of “do not eat-me” signals but increased that of “eat-me” signals | immune checkpoints (PD1, B7H4) and Foxp3 (IHC) [1]: reduced the expression of immune checkpoints (PD1 and B7H4) and Foxp3 | mortality [1]: significantly lower | number of intestinal polyps [1]: significantly lower | tumor formation [1]: attenuated the tumor formation | β-catenin and downstream target proteins (IHC) [1]: suppressed the levels of β-catenin and its downstream target proteins | active caspase-3 and Ki67 in tumor tissues (IHC) (MC38-GFP-Luc cells; 10 mg/kg every day for 4 weeks): increased levels of active caspase-3 and reduced levels of Ki67 | mortality and tumor weight (MC38-GFP-Luc cells; 10 mg/kg every day for 4 weeks, vs vehicle): significant reduction in mortality and tumor weight | CD8+ T-cell-mediated killing, luciferase activity (MC38-GFP-Luc cells; MC38-GFP-Luc cells derived from treated mice, vs vehicle): significantly lower luciferase activity | population of GFP+CD11b+ BMDMs, in words (MC38-GFP-Luc cells; coculture with MC38-GFP-Luc cells isolated from tumors): significantly increased the population of GFP^+CD11b^+ BMDMs | CD107a+ granzyme B+ and FasL+IFNγ+ CD8+ T cells (MC38-GFP-Luc cells; mesenteric lymph nodes restimulated with MC38-GFP-Luc lysates, vs vehicle): increased population of CD107a^+ granzyme B^+ and FasL^+IFNγ^+ CD8^+ T cells | Foxp3+ cells in the CD4+ TCRβ+ gate (MC38-GFP-Luc cells; [4]): decreased population of Foxp3^+ cells | IFNγ+ and IL17a+ in CD4+ T cells (MC38-GFP-Luc cells; [4]): significantly increased the population of IFNγ^+ and IL17a^+ in CD4^+ T cells | sphere-forming capacity (DLD1 cells [2]): significantly decreased the sphere-forming capacity | TCF transactivation in CRC cells (CRC cells): significantly suppressed TCF transactivation | potency in suppressing viability, comparison (DLD1 cells [3]; DLD1 cells): higher potency in suppressing viability than that of VU0155069 | viability of DLD1 cells, in words (DLD1 cells [3]; dose- and time-dependent): significantly inhibited the viability | cell-surface CRT expression, in words (HCT116 cells): increased cell-surface CRT expression | levels of do not eat-me signals, in words (HCT116 cells; CRC cells, flow cytometry): significantly reduced the levels of the “do not eat-me” signals | PLD2 activity, in words (PLD2; 2 μM, Pld−/− MEFs): not PLD2 activity | pIC50 (PLD2; Pld1−/− MEFs): 4.82
